The source of these data is ChEMBL document CHEMBL4373746, “Structural attributes influencing unbound tissue distribution” (Eur J Med Chem, 2020).

The nature of data set [1]: Drug concentration in total skeletal muscle in Wistar Han rat at 1 to 2 mg/kg, iv infused for 10 to 20 hrs by LC-MS/MS analysis. The following applies: in vivo.
Data set [2] in a line: Total plasma concentration in Wistar Han rat at 1 to 2 mg/kg, iv infused for 10 to 20 hrs by LC-MS/MS analysis. The following applies: in vivo.
Data set [3] is described as follows: Fraction unbound in Wistar Han rat skeletal muscle at 2 uM incubated for 6 hrs by equilibrium dialysis method.
The nature of data set [4]: Fraction unbound in Wistar Han rat brain at 2 uM incubated for 6 hrs by equilibrium dialysis method. A general note: In equilibrium dialysis only unbound substance equilibrates across the membrane.
Data set [5] can be described thus: Unbound tissue partition coefficient, ratio of drug level in adipose to plasma in Wistar Han rat at 1 to 2 mg/kg, iv infused for 10 to 20 hrs by LC-MS/MS analysis. Conditions: adipose/plasma.
Data set [6] is described as follows: Drug concentration in total white adipose tissue in Wistar Han rat at 1 to 2 mg/kg, iv infused for 10 to 20 hrs by LC-MS/MS analysis. The following applies: in vivo.
A short description of data set [7]: Fraction unbound in Wistar Han rat plasma at 2 uM incubated for 6 hrs by equilibrium dialysis method.
The nature of data set [8]: Drug concentration in total heart in Wistar Han rat at 1 to 2 mg/kg, iv infused for 10 to 20 hrs by LC-MS/MS analysis. The following applies: in vivo.
The nature of data set [9]: Fraction unbound in Wistar Han rat heart at 2 uM incubated for 6 hrs by equilibrium dialysis method.
Data set [10] in a line: Unbound tissue partition coefficient, ratio of drug level in heart to plasma in Wistar Han rat at 1 to 2 mg/kg, iv infused for 10 to 20 hrs by LC-MS/MS analysis. Conditions: heart/plasma.
The nature of data set [11]: Unbound tissue partition coefficient, ratio of drug level in brain to plasma in Wistar Han rat at 1 to 2 mg/kg, iv infused for 10 to 20 hrs by LC-MS/MS analysis. The following applies: brain/plasma.
Data set [12] in a line: Unbound tissue partition coefficient, ratio of drug level in liver to plasma in Wistar Han rat at 1 to 2 mg/kg, iv infused for 10 to 20 hrs by LC-MS/MS analysis. Conditions: liver/plasma.
Data set [13] is described as follows: Fraction unbound in Wistar Han rat liver at 2 uM incubated for 6 hrs by equilibrium dialysis method.
Data set [14] can be described thus: Drug concentration in total liver in Wistar Han rat at 1 to 2 mg/kg, iv infused for 10 to 20 hrs by LC-MS/MS analysis. The following applies: in vivo.
The nature of data set [15]: Drug concentration in total brain in Wistar Han rat at 1 to 2 mg/kg, iv infused for 10 to 20 hrs by LC-MS/MS analysis. The following applies: in vivo.
The nature of data set [16]: Unbound tissue partition coefficient, ratio of drug level in skeletal muscle to plasma in Wistar Han rat at 1 to 2 mg/kg, iv infused for 10 to 20 hrs by LC-MS/MS analysis. Conditions: skeletal muscle/plasma.
Data set [17] in a line: Fraction unbound in Wistar Han rat white adipose tissue at 2 uM incubated for 6 hrs by equilibrium dialysis method.
Data set [18] is described as follows: Apparent permeability of the compound across dog RRCK cells by MDCK-LE assay.

As a reminder, the Papp is the rate of passage across a membrane or cell layer, normalised by area and donor concentration. Take `C[C@H](CN1CCOCC1)n1/c(=N\C(N)=O)[nH]c2cc(/C=C3\c4ccccc4COc4cc(F)ccc43)ccc21` [LY2623091]: the Ct in data set [1] worked out at 240 ng/mL; in data set [6] it was 410 ng/mL; in [8] it was 620 ng/mL; in data set [14], 730 ng/mL; in [15], 31 ng/mL. In data set [2], this compound showed a Cp of 240 ng/mL. The fraction unbound at 6 h, 2 µM in data set [3] is 5.36e-05; in data set [4], 8.38e-05; in data set [7], 0.00041; in data set [9], 0.000104; in data set [13], 0.000706; in data set [17], 0.000192. Besides, the Kp uu in data set [5] worked out at 0.87; in data set [10], 0.68; in data set [11], 0.028; in data set [12], 5.6; in [16], 0.14. The apparent permeability coefficient (Papp) in data set [18] came out at 0.1 ×10⁻⁶ cm/s.
In the case of `O=c1[nH]c(=S)n(CCO)c2cc[nH]c12`, the Ct in [1] was found to be 38 ng/mL; in data set [6], 0.86 ng/mL; in data set [8], 45 ng/mL; in data set [14], 70 ng/mL; in data set [15], 3.7 ng/mL. In addition, the Cp in data set [2] was 32 ng/mL. Besides, the fraction unbound at 6 h, 2 µM is 0.276 in [3]; 0.347 in data set [4]; 0.817 in [7]; 0.667 in data set [9]; 0.696 in data set [13]; 1 in data set [17]. Besides, the Kp uu in data set [5] came to 0.027; in data set [10], 1.1; in data set [11], 0.048; in [12], 1.9; in [16], 0.41. For the same compound, the apparent permeability (Papp) in data set [18] came to 1.7 ×10⁻⁶ cm/s.
Consider `O=C(O)C(=O)Nc1ccc(NC(=O)[C@H](CC2CCCC2)n2cnc(C(F)(F)F)c2)nc1`, for which the Ct in [1] is 0.9 ng/mL; in [6], 0.77 ng/mL; in [8], 20 ng/mL; in data set [14] it was 300 ng/mL; in data set [15] it was 0.38 ng/mL. Moreover, in [2], the Cp was found to be 110 ng/mL. The Kp uu was 0.024 in data set [5]; 0.75 in data set [10]; 0.0018 in data set [11]; 7.2 in data set [12]; 0.02 in data set [16].
As to `Nc1noc2ccc(-c3cc(Cl)ccc3Oc3cc(F)c(S(=O)(=O)Nc4cscn4)cc3F)cc12`, the Ct turned out to be 18 ng/mL in data set [1]; 11 ng/mL in data set [6]; 54 ng/mL in data set [8]; 1.4 ng/mL in data set [14]; 0.38 ng/mL in [15]. Also, the Cp in data set [2] was determined as 36 ng/mL. For the same compound, the fraction unbound at 6 h, 2 µM in [3] was 0.00165; in [4], 0.00141; in data set [7] it was 0.00155; in data set [9], 0.000968; in [13] it was 0.00176; in data set [17], 0.0123. The Kp uu amounted to 2.4 in data set [5]; 0.9 in data set [10]; 0.0018 in data set [11]; 0.033 in data set [12]; 0.54 in data set [16]. For the same compound, the Papp in [18] was found to be 3.8 ×10⁻⁶ cm/s.
For `C[C@H]1C[C@H]2CSC(N)=N[C@@]2(c2cc(C#N)ccc2F)CO1`, the Ct in [1] came to 240 ng/mL; in data set [6] it was 86 ng/mL; in data set [8], 380 ng/mL; in [14], 990 ng/mL; in data set [15] it was 230 ng/mL. In [2], the Cp was determined as 84 ng/mL. Further, the fraction unbound at 6 h, 2 µM was found to be 0.344 in data set [3]; 0.573 in data set [4]; 0.796 in data set [7]; 0.668 in data set [9]; 0.548 in [13]; 1 in data set [17]. The Kp uu in [5] amounted to 1.4; in data set [10], 3.9; in data set [11] it was 2.1; in [12], 8.5; in data set [16], 1.3. The apparent permeability coefficient (Papp) in [18] is 29 ×10⁻⁶ cm/s.
Take `Cc1ccc(NC(=O)c2cc(Oc3ccc(S(C)(=O)=O)cc3)c3c(c2)OC(C)(C)C3)nc1`: the Ct in data set [1] turned out to be 89 ng/mL; in [6] it was 1000 ng/mL; in data set [8], 220 ng/mL; in [14], 150 ng/mL; in data set [15], 69 ng/mL. This compound registered a Cp in [2] of 68 ng/mL. Moreover, the fraction unbound at 6 h, 2 µM in data set [3] stood at 0.011; in data set [4] it was 0.0077; in [7], 0.0809; in data set [9], 0.0109; in data set [13], 0.00864; in [17], 0.00216. In addition, the Kp uu stood at 0.41 in [5]; 0.43 in data set [10]; 0.1 in [11]; 0.24 in [12]; 0.18 in data set [16]. Also, the apparent permeability coefficient (Papp) in [18] worked out at 22 ×10⁻⁶ cm/s.
For the compound `CC(C)(O)CS(=O)(=O)c1ccc2c(c1)nc(C(C)(C)C)n2CC1CCOCC1`, the Ct came out at 60 ng/mL in [1]; 55 ng/mL in data set [6]; 91 ng/mL in data set [8]; 320 ng/mL in data set [14]; 6.2 ng/mL in [15]. Also, the Cp in [2] was determined as 55 ng/mL. In addition, the fraction unbound at 6 h, 2 µM in data set [3] is 0.203; in data set [4], 0.538; in data set [7] it was 0.469; in data set [9], 0.321; in data set [13] it was 0.437; in data set [17], 0.786. For the same compound, the Kp uu came to 1.7 in data set [5]; 1.1 in [10]; 0.13 in data set [11]; 5.4 in [12]; 0.48 in [16]. Further, in data set [18], the Papp was 28 ×10⁻⁶ cm/s.
Consider `CN(C)C[C@@H](OC(=O)N1Cc2c(NC(=O)C3(C(F)(F)F)CC3)n[nH]c2C1(C)C)c1ccccc1`, for which the Ct in [1] was found to be 97 ng/mL; in [6], 79 ng/mL; in data set [8] it was 190 ng/mL; in [14], 420 ng/mL; in data set [15], 2.3 ng/mL. Also, the Cp in [2] was 28 ng/mL. Further, the fraction unbound at 6 h, 2 µM in data set [3] was 0.138; in data set [4] it was 0.0543; in [7] it was 0.362; in data set [9] it was 0.0941; in data set [13], 0.0749; in [17], 0.205. The Kp uu is 1.6 in data set [5]; 1.8 in [10]; 0.013 in data set [11]; 3.3 in [12]; 1.4 in data set [16]. In data set [18], the Papp was 15 ×10⁻⁶ cm/s.
For the compound `CC(C)C[C@H](Nc1ccc(C(=O)NCCC(=O)O)cn1)c1ccc(-c2ccc(C(F)(F)F)cn2)cc1`, the Ct in [1] came to 0.8 ng/mL; in data set [6] it was 0.77 ng/mL; in [8], 45 ng/mL; in data set [14], 1000 ng/mL; in data set [15] it was 0.95 ng/mL. This compound also displayed a Cp in data set [2] of 45 ng/mL. Besides, the fraction unbound at 6 h, 2 µM in [3] was 0.011; in data set [4] it was 0.00795; in data set [7] it was 0.0141; in [9], 0.00934; in data set [13], 0.00684; in [17], 0.119. Further, the Kp uu in data set [5] was found to be 0.024; in [10], 0.57; in [11] it was 0.0042; in [12] it was 12; in data set [16], 0.02. The Papp in [18] was determined as 0.1 ×10⁻⁶ cm/s.
With `CC(C)n1ncc2c1C(=O)CC1(CCN(C(=O)c3ccc4[nH]nc(C(N)=O)c4c3)CC1)C2`, the Ct in [1] was 30 ng/mL; in [6], 17 ng/mL; in data set [8], 62 ng/mL; in data set [14], 500 ng/mL; in [15], 0.38 ng/mL. The same compound displayed a Cp in [2] of 65 ng/mL. The fraction unbound at 6 h, 2 µM in data set [3] was found to be 0.172; in data set [4], 0.0763; in [7], 0.119; in [9], 0.121; in data set [13], 0.108; in data set [17] it was 0.398. Besides, the Kp uu in data set [5] is 0.98; in data set [10] it was 1.1; in data set [11] it was 0.0018; in data set [12] it was 7.9; in data set [16], 0.76. Besides, in data set [18], the apparent permeability coefficient (Papp) is 3.6 ×10⁻⁶ cm/s.
On to `CC(=O)N1CCN(c2ccc(OCC3COC(Cn4ccnc4)(c4ccc(Cl)cc4Cl)O3)cc2)CC1` (centres undefined) [KETOCONAZOLE], for which the Papp in data set [18] was 4.2 ×10⁻⁶ cm/s.
